Measurements: PubChem BioAssay (NCI)
Values after ≈ are worked out from the molar mass of the structure shown. Values joined by “and” are separate entries in the source; they are usually repeats but may differ in a detail not shown here. Identical values can stand only once.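 48-hour exposure; five concentrations; linearly interpolated endpoints. At the GI50, growth is halved. The concentration for full growth arrest is given as TGI.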 Active and inactive are the calls of the source. Cut-off read from the data, not from the text of the source: active = GI50 below about 0.43 µM; inactive = the rest.

Columns and labels:
Assay in all cases: NCI tumour cell line growth inhibition, 48 h
DLD-1 colon = test system: DLD-1 colon
HOP-18 NSCLC = test system: HOP-18 NSCLC
LXFL 529 NSCLC = test system: LXFL 529 NSCLC
M19-MEL melanoma = test system: M19-MEL melanoma
SNB-78 CNS = test system: SNB-78 CNS
HS 578T breast = test system: HS 578T breast
PC-3 prostate = test system: PC-3 prostate
MDA-N = test system: MDA-N
XF 498 CNS = test system: XF 498 CNS

Structure (SMILES) | TGI (DLD-1 colon) | TGI (LXFL 529 NSCLC) | TGI (M19-MEL melanoma) | TGI (SNB-78 CNS) | GI50 (HS 578T breast) | TGI (HS 578T breast) | GI50 (PC-3 prostate) | TGI (PC-3 prostate) | other results
CCn1c(O)c(C=N)c(=O)n(CC)c1=O | > 100 µM | > 100 µM | > 100 µM | > 100 µM |  |  |  |  | TGI (HOP-18 NSCLC): > 100 µM
O=C1NC2CCC(C2)C1c1ccccc1 (centres undefined) | > 100 µM | > 100 µM | > 100 µM | > 100 µM |  |  |  |  | TGI (HOP-18 NSCLC): > 100 µM
COc1ccc(-c2nc3ncccn3c2/C=C/C(=O)c2cc(OC)c(OC)c(OC)c2)cc1 |  |  |  |  | 1.91 µM | 14.7 µM | 4.32 µM | 53.2 µM | 
Cc1cc2cc3c(C)cc(=O)oc3c(C)c2o1 |  |  |  |  |  | > 100 µM |  | > 100 µM | TGI (MDA-N): > 100 µM
O=[N+]([O-])c1ccc(N=Nc2c(O)ccc3ccccc23)cc1 |  |  |  |  | 18.3 µM and > 100 µM | 46.6 µM and > 100 µM |  | > 100 µM | TGI (MDA-N): > 100 µM
O=C(Nc1ccc(F)cc1)C(=O)C(C1OC(=O)c2ccccc21)[N+](=O)[O-] (centres undefined) | > 100 µM | > 100 µM | > 100 µM | > 100 µM |  |  |  |  | TGI (XF 498 CNS): > 100 µM
C=CCC(C(=O)O)c1ccccc1 (centres undefined) |  |  |  |  |  | > 100 µM |  | > 100 µM | TGI (MDA-N): > 100 µM
COC1OC(C)C(O)CC1OS(=O)(=O)c1ccc(C)cc1 (centres undefined) |  | > 100 µM | > 100 µM | > 100 µM |  |  |  |  | TGI (HOP-18 NSCLC): > 100 µM
CC(=O)N/C(=C\c1cccc([N+](=O)[O-])c1)c1nc2c3c(ccc2[nH]1)C(=O)c1ccccc1C3=O | > 100 µM | > 100 µM | > 100 µM | > 100 µM |  |  |  |  | TGI (XF 498 CNS): > 100 µM
COC(=O)C(=O)C(C#N)c1ccc(CC#N)cc1 (centres undefined) | > 100 µM | > 100 µM | > 100 µM | > 100 µM |  |  |  |  | TGI (XF 498 CNS): > 100 µM
CC/C(=C(/CC)c1ccc(O)cc1)c1ccc([O-])cc1.CC/C(=C(/CC)c1ccc(O)cc1)c1ccc([O-])cc1.O=C([CH-]C(=O)c1ccccc1)c1ccccc1.O=C([CH-]C(=O)c1ccccc1)c1ccccc1.[Ti+4] | 28.9 µM |  |  | > 100 µM |  |  |  |  | GI50 (DLD-1 colon): 10.8 µM; GI50 (HOP-18 NSCLC): 24.4 µM; TGI (HOP-18 NSCLC): 39.3 µM; GI50 (SNB-78 CNS): 27.1 µM
Cc1cc(C)nc(NS(=O)(=O)c2ccc(Nc3c4ccc(Cl)cc4nc4c(C(=O)Nc5ccc(S(=O)(=O)N=C(N)N)cc5)cccc34)cc2)n1 | > 100 µM | > 100 µM | > 100 µM | > 100 µM |  |  |  |  | TGI (XF 498 CNS): > 100 µM
C=CCN1C=CC(=O)[C@H](O[Si](C)(C)C(C)(C)C)[C@@H]1/C=C/c1ccccc1 |  |  |  |  | 14.1 µM | 34.3 µM |  |  | 
Cc1ccc(C(=O)C(Cl)C(Cl)c2ccc(C)cc2)cc1 (centres undefined) |  |  |  |  |  | 76.3 µM |  | 18.4 µM | TGI (MDA-N): 6.18 µM
O=c1[nH]ccc2nc(N3CCC(O)CC3)nc(Nc3cccc(C(F)(F)F)c3)c12 |  |  |  |  | 1.93 µM | 14.1 µM | 2.29 µM | 13 µM | 
O=C(O)CC12C3C4C5C3C1C5C42 (centres undefined) | > 100 µM | > 100 µM | > 100 µM | > 100 µM |  |  |  |  | TGI (XF 498 CNS): > 100 µM
CCCCc1ccc(-n2c3nc(=O)n(C)c(=O)c-3nc3ccccc32)cc1 |  | 30.4 µM | 2.87 µM | 39 µM |  |  |  |  | TGI (HOP-18 NSCLC): 22.7 µM; TGI (XF 498 CNS): 32.4 µM

Structure (SMILES) | TGI (DLD-1 colon) | TGI (LXFL 529 NSCLC) | TGI (M19-MEL melanoma) | TGI (SNB-78 CNS) | GI50 (HS 578T breast) | TGI (HS 578T breast) | GI50 (PC-3 prostate) | TGI (PC-3 prostate) | other results
C=CCN(CC=C)C(=O)c1cc(C)nc2c1c(=O)n(-c1ccccc1)c(=O)n2CC(O)CN1CCN(c2ncccn2)CC1 (centres undefined) |  |  |  |  | > 100 µM | > 100 µM |  |  | 
CC(C)CNc1nc(-c2ccccc2)nc2ccccc12 |  |  |  |  | 16.5 µM | 33.9 µM | 17.1 µM | 34.8 µM | 
COc1cc2cc(C(=O)Nc3cc(N)c4ccccc4c3CCCl)[nH]c2c(OC)c1OC |  |  |  |  | 0.0899 µM | > 50 µM | 0.0252 µM | 1.59 µM | GI50 (MDA-N): 0.0568 µM; TGI (MDA-N): 0.219 µM
Cc1ccc(-c2nc(N)nc3c2nnn3Cc2cccc(CO[C@H]3CCOC3)n2)o1 |  |  |  |  | > 100 µM | > 100 µM | > 100 µM | > 100 µM | 
Cc1ccc(NC(=O)CCC/C(CC(=O)c2ccc(Br)cc2)=N/NC(=O)CC#N)cc1 | > 100 µM | > 100 µM | > 100 µM | > 100 µM |  |  |  |  | 
COc1c(Cl)c2c(c(OC)c1OC)-c1ccc(SC)c(=O)cc1[C@@H](NC(=O)OCC(F)(F)F)CC2 |  |  |  |  | < 0.01 µM | > 100 µM | < 0.01 µM | > 72.8 µM | 
Cc1cc(N2CCN(c3ccnc4cc(Cl)ccc34)CC2)nc(NC2CCCCC2)n1 |  |  |  |  | 2.1 µM | 6.62 µM | 1.47 µM | 3.02 µM | 
CN(C)C1CCN(C(=O)c2ccc(NC(=O)Nc3ccc(-c4nc(N5CCOCC5)nc(N5CCOCC5)n4)cc3)cc2)CC1 |  |  |  |  | < 0.01 µM and 0.00879 µM and 0.025 µM | 0.061 µM and 0.0697 µM and 0.343 µM | < 0.01 µM and 0.0108 µM and 0.0309 µM | 0.407 µM and 0.216 µM and 1.06 µM | 
C1CCN(C2OC3C(COC3N3CCCCC3)OC2OC2CCO[C@@H]2N2CCCCC2)CC1 (some centres undefined) | > 100 µM | 68.5 µM |  | 56.1 µM |  |  |  |  | TGI (XF 498 CNS): 37.3 µM
CC(C)C1CCC/C=C/C=C/C=C/C=C/C(OC2OC(C)C(O)C(N)C2O)CC2OC(O)(CC(O)CC(O)C(O)CCC(=O)O1)CC(O)C2C(=O)O (centres undefined) |  | > 52.5 µM | > 52.5 µM | > 52.5 µM |  |  |  |  | TGI (HOP-18 NSCLC): > 52.5 µM
C=C1C(=O)[C@@]23CC1C(O)[C@@H](OC(C)=O)[C@@H]2C1(C)C(OC(C)=O)C[C@@H](OC(C)=O)C(C)(C)[C@@H]1C[C@H]3OC(C)=O (some centres undefined) |  |  | 4.85 µg/mL |  | 2 µg/mL | > 10 µM and 5.83 µg/mL | 10.6 µg/mL | > 10 µM and 22.4 µg/mL | outcome (LXFL 529 NSCLC): inactive; GI50 (M19-MEL melanoma): 2.23 µg/mL (≈ 4.17 µM); GI50 (MDA-N): 2.28 µg/mL; TGI (MDA-N): > 10 µM and 5.3 µg/mL
COC(=O)c1c2c(c(C)[n+]([O-])c1C)C(=O)C=C(NCc1ccc(OC)cc1)C2=O |  |  |  |  | 5.32 µM | 21.6 µM | 1.02 µM | 6.55 µM | 
c1cc(OCCN2CCCCC2)ccc1CNc1ccc2nc(CCC3CCCCC3)[nH]c2c1 |  |  |  |  | 1.64 µM | 4.64 µM | 1.6 µM | 3.71 µM | 
COc1ccc2cc3[n+](cc2c1OC)CCc1cc(O)c(O)cc1-3 | > 100 µM | > 100 µM | > 100 µM | > 100 µM |  |  |  |  | TGI (XF 498 CNS): > 100 µM
COc1ccc(CNc2c3ccccc3nc3ccc(OC)cc23)cc1 |  |  |  |  | 2.85 µM | 8.68 µM | 2.8 µM | 11.8 µM | 
CCOC(=O)C1=C(Nc2ccc(Cl)cc2Cl)OC/C1=N\NS(=O)(=O)c1ccc(C)cc1 | > 100 µM | > 100 µM | > 100 µM | > 100 µM |  |  |  |  | TGI (HOP-18 NSCLC): > 100 µM
